Measurements published in publication PMC2666074 (Biochemistry, 2008).
Ends that are not written are not given here. Peptide text beside a SMILES is read from it.

How the values were obtained:
[1] = biological target: T1, S100A6 (Oryctolagus cuniculus, UniProt P30801); type: binding, rabbit; details: 25 °C, pH 7.0, 10 mM Ca^2+; for heat of binding in ITC: no affinity could be measured
[2] = biological target: T1, S100A6; test: NMR titration / chemical shift perturbation, SIP; type: binding, rabbit; details: 30 °C
[3] = tested on: SCF-TBL1 E3 ligase; details: SGS domain mutant of SIP; cited from earlier work
[4] = tested on: S100A6; details: cited from earlier work

## CC[C@H](C)[C@H](NC(=O)[C@H](CCCCN)NC(=O)[C@H](CCCCN)NC(=O)[C@H](CC(C)C)NC(=O)[C@@H](NC(=O)[C@H](CC(N)=O)NC(=O)[C@H](CCSC)NC(=O)[C@H](CC(C)C)NC(=O)CNC(=O)[C@H](CCC(=O)O)NC(=O)[C@H](CO)NC(=O)[C@H](CO)NC(=O)CNC(=O)[C@@H]1CCCN1C(=O)CN)C(C)C)C(=O)N[C@@H](Cc1ccc(O)cc1)C(=O)N[C@@H](CCC(=O)O)C(=O)N[C@@H](CC(=O)O)C(=O)NCC(=O)O [SIP(189–203)] (H-GPGSSEGLMNVLKKIYEDG-OH)
[1]; ITC, SIP fragment vs SIP(189–219)
  reduction of S100A6 binding affinity: 4 fold

## CC[C@H](C)[C@H](NC(=O)[C@H](CCCCN)NC(=O)[C@H](CCCCN)NC(=O)[C@H](CC(C)C)NC(=O)[C@@H](NC(=O)[C@H](CC(N)=O)NC(=O)[C@H](CCSC)NC(=O)[C@H](CC(C)C)NC(=O)CNC(=O)[C@H](CCC(=O)O)NC(=O)[C@H](CO)NC(=O)[C@H](CO)NC(=O)CNC(=O)[C@@H]1CCCN1C(=O)CN)C(C)C)C(=O)N[C@@H](Cc1ccc(O)cc1)C(=O)N[C@@H](CCC(=O)O)C(=O)N[C@@H](CC(=O)O)C(=O)NCC(=O)N[C@@H](CC(=O)O)C(=O)N[C@@H](CC(=O)O)C(=O)N[C@@H](CC(=O)O)C(=O)N[C@@H](CCSC)C(=O)N[C@@H](CCCCN)C(=O)N[C@@H](CCCNC(=N)N)C(=O)N[C@H](C(=O)N[C@H](C(=O)N[C@@H](CC(N)=O)C(=O)N[C@@H](CCCCN)C(=O)N[C@@H](C)C(=O)N[C@@H](Cc1c[nH]c2ccccc12)C(=O)N[C@H](C(=O)N[C@@H](CCC(=O)O)C(=O)N[C@@H](CO)C(=O)N[C@@H](CCCNC(=N)N)C(=O)O)C(C)C)[C@@H](C)CC)[C@@H](C)O [SIP(189–219)] (H-GPGSSEGLMNVLKKIYEDGDDDMKRTINKAWVESR-OH)
[2]; 15N-1H HSQC, pH 6.5, 10 mM Ca^2+
  exchange regime of the interaction (NMR titration): intermediate-fast exchange regime
[2]; 15N-labeled S100A6 0.1 mM, 50 mM Tris pH 6.5, 10 mM Ca^2+
  binding stoichiometry by NMR: two SIP molecules are symmetrically bound to the S100A6 dimer

## E217K: SGS domain mutant of SIP
[3]
  function of the E3 ligase, in words: disrupt the function of the E3 ligase

## SIP L196A: full length SIP construct, substitution of Leu196 for Ala
[1]
  heat of binding in ITC: did not produce detectable heat changes

## SIP(203–219): SIP fragment for second putative helix (GDDDMKRTINKAWVESR; not fully specified)
[1]
  heat of binding in ITC: did not produce any observable heat of binding

## isolated SGS domain fragment: intrinsically disordered SGS (Sgt1 specific) domain (E178-F229) (EKPSYDTEADPSEGLMNVLKKIYEDGDDDMKRTINKAWVESREKQAREDTEF; left off: His-tag, N-terminal, cleaved)
[1]; ITC, compared with full-length SIP / SIP-SGS
  S100A6 binding affinity, in words: very similar S100A6 binding affinities
[4]
  Ca^2+ dependence of S100A6 binding: strictly Ca^2+ dependent
